# Legend:
# Format in all cases: binding
# Kinome scan = conditions: 1000 nM, ZAP70 (Entrez gene symbol printed STK32C)
# Protocol: (§1) The kinome scan assays were carried out at Eurofins DiscoverX Corporation. For kinome scan profiling of compound 1g, it was screened at 1μM against 96 kinases (N = 2 independent experiments). The results for binding interactions are reported as % inhibition, where higher values indicate strong affinity; see the Supporting Information, Table S1 for full kinome profile.
# [1] = target: T1, ABL1(E255K)-phosphorylated (Homo sapiens, UniProt P00519, E255K); experiment: Kinome scan; conditions: 1000 nM
# T1 construct: purchased Eurofins DiscoverX Corporation
# Protocol: as §1
# [2] = target: T2, ABL1(T315I)-phosphorylated (Homo sapiens, UniProt P00519, T315I); experiment: Kinome scan; conditions: 1000 nM
# T2 construct: purchased Eurofins DiscoverX Corporation
# Protocol: as §1
# ACVR1B = target: T3, ACVR1B (Homo sapiens, UniProt P36896); experiment: Kinome scan; conditions: 1000 nM
# T3 construct: purchased Eurofins DiscoverX Corporation
# Protocol: as §1
# ALK = target: T4, ALK (Homo sapiens, UniProt Q9UM73); experiment: Kinome scan; conditions: 1000 nM
# T4 construct: purchased Eurofins DiscoverX Corporation
# T4 sequence (Q9UM73 19-1620): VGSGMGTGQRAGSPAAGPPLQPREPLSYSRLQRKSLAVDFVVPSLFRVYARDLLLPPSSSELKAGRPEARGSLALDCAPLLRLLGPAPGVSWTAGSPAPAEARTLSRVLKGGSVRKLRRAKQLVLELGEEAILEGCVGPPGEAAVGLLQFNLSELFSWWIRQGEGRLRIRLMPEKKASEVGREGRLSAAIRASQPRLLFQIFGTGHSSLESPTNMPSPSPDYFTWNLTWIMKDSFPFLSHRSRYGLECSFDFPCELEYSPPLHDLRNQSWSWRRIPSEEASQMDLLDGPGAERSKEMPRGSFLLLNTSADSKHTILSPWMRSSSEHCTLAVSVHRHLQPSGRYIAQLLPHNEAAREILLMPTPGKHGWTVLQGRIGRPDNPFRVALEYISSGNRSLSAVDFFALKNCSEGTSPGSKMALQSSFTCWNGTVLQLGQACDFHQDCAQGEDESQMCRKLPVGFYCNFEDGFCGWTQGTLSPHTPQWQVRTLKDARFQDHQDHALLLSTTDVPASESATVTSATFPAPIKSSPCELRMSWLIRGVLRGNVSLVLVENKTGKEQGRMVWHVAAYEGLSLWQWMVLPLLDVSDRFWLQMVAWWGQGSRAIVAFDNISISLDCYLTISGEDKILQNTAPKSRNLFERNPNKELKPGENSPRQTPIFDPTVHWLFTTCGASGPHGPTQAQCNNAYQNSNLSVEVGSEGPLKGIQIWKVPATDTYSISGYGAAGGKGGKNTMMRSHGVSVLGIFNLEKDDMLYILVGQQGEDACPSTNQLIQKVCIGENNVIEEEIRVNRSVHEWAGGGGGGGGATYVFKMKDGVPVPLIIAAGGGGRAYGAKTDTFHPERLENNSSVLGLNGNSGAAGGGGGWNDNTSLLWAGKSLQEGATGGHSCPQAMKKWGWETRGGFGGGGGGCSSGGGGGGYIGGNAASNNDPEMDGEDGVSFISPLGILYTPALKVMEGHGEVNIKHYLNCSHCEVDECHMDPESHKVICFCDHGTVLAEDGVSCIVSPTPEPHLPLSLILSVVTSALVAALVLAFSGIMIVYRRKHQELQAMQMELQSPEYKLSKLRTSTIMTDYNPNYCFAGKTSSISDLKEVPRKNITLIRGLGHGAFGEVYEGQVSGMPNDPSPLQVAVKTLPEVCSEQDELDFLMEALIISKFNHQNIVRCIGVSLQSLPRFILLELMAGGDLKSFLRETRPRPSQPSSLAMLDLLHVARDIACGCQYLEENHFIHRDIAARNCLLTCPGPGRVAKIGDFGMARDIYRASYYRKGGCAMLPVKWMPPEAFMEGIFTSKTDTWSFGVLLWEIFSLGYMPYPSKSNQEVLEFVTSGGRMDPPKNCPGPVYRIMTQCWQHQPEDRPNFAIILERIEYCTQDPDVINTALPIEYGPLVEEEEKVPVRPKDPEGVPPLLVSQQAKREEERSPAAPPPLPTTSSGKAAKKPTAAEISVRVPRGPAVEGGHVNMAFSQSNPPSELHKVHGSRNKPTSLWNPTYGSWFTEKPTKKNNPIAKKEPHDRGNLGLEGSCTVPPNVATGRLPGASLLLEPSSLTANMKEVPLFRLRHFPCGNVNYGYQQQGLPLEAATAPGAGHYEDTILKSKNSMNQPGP
# Protocol: as §1
# AXL = target: T5, AXL (Homo sapiens, UniProt P30530); experiment: Kinome scan; conditions: 1000 nM
# T5 construct: purchased Eurofins DiscoverX Corporation
# T5 sequence (P30530 26-894): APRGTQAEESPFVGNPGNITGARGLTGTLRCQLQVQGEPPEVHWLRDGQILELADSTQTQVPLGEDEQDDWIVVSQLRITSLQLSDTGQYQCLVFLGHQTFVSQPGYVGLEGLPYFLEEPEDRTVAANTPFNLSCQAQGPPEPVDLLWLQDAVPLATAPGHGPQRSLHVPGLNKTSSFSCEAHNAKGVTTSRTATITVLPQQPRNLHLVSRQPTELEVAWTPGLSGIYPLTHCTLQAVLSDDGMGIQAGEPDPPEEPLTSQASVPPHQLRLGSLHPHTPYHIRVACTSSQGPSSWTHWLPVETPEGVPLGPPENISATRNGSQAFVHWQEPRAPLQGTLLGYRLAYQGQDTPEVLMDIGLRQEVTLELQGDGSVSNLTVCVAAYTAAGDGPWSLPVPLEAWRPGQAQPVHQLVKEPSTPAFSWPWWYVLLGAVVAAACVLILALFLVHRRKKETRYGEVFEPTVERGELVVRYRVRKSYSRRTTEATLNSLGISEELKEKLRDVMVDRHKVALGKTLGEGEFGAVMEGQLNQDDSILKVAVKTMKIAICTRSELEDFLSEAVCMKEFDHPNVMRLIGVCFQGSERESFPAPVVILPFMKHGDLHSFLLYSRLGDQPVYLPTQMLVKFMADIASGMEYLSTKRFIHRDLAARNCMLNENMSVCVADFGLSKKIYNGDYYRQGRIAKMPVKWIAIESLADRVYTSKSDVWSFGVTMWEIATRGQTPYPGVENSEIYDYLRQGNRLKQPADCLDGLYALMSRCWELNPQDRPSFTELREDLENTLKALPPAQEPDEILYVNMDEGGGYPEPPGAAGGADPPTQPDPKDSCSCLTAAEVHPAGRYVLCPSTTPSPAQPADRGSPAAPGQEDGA
# Protocol: as §1
# BTK = target: T6, BTK (Homo sapiens, UniProt Q06187); experiment: Kinome scan; conditions: 1000 nM
# T6 construct: purchased Eurofins DiscoverX Corporation
# Protocol: as §1
# CDK2 = target: T7, CDK2 (Homo sapiens, UniProt P24941); experiment: Kinome scan; conditions: 1000 nM
# T7 construct: purchased Eurofins DiscoverX Corporation
# Protocol: as §1
# CDK3 = target: T8, CDK3 (Homo sapiens, UniProt Q00526); experiment: Kinome scan; conditions: 1000 nM
# T8 construct: purchased Eurofins DiscoverX Corporation
# Protocol: as §1
# CSNK1D = target: T9, CSNK1D (Homo sapiens, UniProt P48730); experiment: Kinome scan
# T9 construct: purchased Eurofins DiscoverX Corporation
# T9 sequence (P48730 whole entry): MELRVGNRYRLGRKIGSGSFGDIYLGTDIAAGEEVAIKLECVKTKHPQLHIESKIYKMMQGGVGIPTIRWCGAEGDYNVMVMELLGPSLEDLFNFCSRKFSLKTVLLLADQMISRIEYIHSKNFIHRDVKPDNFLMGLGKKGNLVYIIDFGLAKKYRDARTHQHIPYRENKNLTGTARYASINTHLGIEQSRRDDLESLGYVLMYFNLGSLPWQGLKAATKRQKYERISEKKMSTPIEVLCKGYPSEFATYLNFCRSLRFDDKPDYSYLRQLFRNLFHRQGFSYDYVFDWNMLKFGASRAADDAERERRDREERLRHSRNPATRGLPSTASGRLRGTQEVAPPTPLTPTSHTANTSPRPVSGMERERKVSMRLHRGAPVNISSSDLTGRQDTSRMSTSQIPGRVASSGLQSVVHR
# Protocol: as §1
# DCAMKL1 = target: T10, DCAMKL1 (Homo sapiens, UniProt O15075); experiment: Kinome scan; conditions: 1000 nM
# T10 construct: purchased Eurofins DiscoverX Corporation
# Protocol: as §1
# DYRK1B = target: T11, DYRK1B (Homo sapiens, UniProt Q9Y463); experiment: Kinome scan
# T11 construct: purchased Eurofins DiscoverX Corporation
# T11 sequence (Q9Y463 whole entry): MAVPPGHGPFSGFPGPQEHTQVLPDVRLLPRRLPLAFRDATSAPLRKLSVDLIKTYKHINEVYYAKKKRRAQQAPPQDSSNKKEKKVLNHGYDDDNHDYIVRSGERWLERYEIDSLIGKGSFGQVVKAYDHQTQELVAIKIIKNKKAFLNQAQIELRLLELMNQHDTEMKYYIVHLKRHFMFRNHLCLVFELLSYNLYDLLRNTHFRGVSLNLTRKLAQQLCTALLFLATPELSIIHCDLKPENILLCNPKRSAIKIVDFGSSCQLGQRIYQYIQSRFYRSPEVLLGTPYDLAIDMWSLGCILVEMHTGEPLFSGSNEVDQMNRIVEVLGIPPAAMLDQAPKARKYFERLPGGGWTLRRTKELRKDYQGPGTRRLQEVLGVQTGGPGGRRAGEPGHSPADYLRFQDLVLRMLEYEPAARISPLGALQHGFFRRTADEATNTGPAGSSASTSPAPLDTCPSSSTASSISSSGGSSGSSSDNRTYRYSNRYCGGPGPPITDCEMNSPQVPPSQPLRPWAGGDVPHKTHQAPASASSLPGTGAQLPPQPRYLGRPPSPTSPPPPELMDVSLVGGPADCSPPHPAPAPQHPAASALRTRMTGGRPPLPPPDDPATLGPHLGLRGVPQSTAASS
# Protocol: as §1
# EGFR(L858R) = target: T12, EGFR(L858R) (Homo sapiens, UniProt P00533, L858R); experiment: Kinome scan; conditions: 1000 nM
# T12 construct: purchased Eurofins DiscoverX Corporation
# Protocol: as §1
# ERBB2 = target: T13, ERBB2 (Homo sapiens, UniProt P04626); experiment: Kinome scan; conditions: 1000 nM
# T13 construct: purchased Eurofins DiscoverX Corporation
# Protocol: as §1
# ERK1 = target: T14, ERK1 (Homo sapiens, UniProt P27361); experiment: Kinome scan; conditions: 1000 nM
# T14 construct: purchased Eurofins DiscoverX Corporation
# Protocol: as §1
# FGFR2 = target: T15, FGFR2 (Homo sapiens, UniProt P21802); experiment: Kinome scan; conditions: 1000 nM
# T15 construct: purchased Eurofins DiscoverX Corporation
# Protocol: as §1
# FGFR3 = target: T16, FGFR3 (Homo sapiens, UniProt P22607); experiment: Kinome scan; conditions: 1000 nM
# T16 construct: purchased Eurofins DiscoverX Corporation
# Protocol: as §1
# FLT3 = target: T17, FLT3 (Homo sapiens, UniProt P36888); experiment: Kinome scan; conditions: 1000 nM
# T17 construct: purchased Eurofins DiscoverX Corporation
# Protocol: as §1
# GSK3B = target: T18, GSK3B (Homo sapiens, UniProt P49841); experiment: Kinome scan; conditions: 1000 nM
# T18 construct: purchased Eurofins DiscoverX Corporation
# T18 sequence (P49841 whole entry): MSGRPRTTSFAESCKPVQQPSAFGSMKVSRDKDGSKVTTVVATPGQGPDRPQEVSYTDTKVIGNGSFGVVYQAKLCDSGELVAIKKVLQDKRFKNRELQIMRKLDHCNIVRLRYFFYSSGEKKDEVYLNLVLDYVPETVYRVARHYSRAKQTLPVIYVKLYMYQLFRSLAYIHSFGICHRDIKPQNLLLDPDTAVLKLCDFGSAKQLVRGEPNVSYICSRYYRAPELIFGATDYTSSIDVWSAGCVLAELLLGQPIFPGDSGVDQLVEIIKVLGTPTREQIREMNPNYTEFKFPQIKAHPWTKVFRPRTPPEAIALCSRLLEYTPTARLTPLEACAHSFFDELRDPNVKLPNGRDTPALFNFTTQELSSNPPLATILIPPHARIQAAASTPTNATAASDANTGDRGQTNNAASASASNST
# Protocol: as §1
# INSR = target: T19, INSR (Homo sapiens, UniProt P06213); experiment: Kinome scan; conditions: 1000 nM
# T19 construct: purchased Eurofins DiscoverX Corporation
# Protocol: as §1
# [3] = target: T20, JAK3(JH1domain-catalytic) (Homo sapiens, UniProt P52333); experiment: Kinome scan; conditions: 1000 nM
# T20 construct: JAK3(JH1domain-catalytic); purchased Eurofins DiscoverX Corporation
# Protocol: as §1
# JNK1 = target: T21, JNK1 (Homo sapiens, UniProt P45983); experiment: Kinome scan; conditions: 1000 nM
# T21 construct: purchased Eurofins DiscoverX Corporation
# Protocol: as §1
# KIT = target: T22, KIT (Homo sapiens, UniProt P10721); experiment: Kinome scan; conditions: 1000 nM
# T22 construct: purchased Eurofins DiscoverX Corporation
# Protocol: as §1
# MEK2 = target: T23, MEK2 (Homo sapiens, UniProt P36507); experiment: Kinome scan; conditions: 1000 nM
# T23 construct: purchased Eurofins DiscoverX Corporation
# Protocol: as §1
# MKNK2 = target: T24, MKNK2 (Homo sapiens, UniProt Q9HBH9); experiment: Kinome scan; conditions: 1000 nM
# T24 construct: purchased Eurofins DiscoverX Corporation
# Protocol: as §1
# PCTK1 = target: T25, PCTK1 (Homo sapiens, UniProt Q00536); experiment: Kinome scan; conditions: 1000 nM
# T25 construct: purchased Eurofins DiscoverX Corporation
# Protocol: as §1
# PDGFRB = target: T26, PDGFRB (Homo sapiens, UniProt P09619); experiment: Kinome scan; conditions: 1000 nM
# T26 construct: purchased Eurofins DiscoverX Corporation
# Protocol: as §1
# PDPK1 = target: T27, PDPK1 (Homo sapiens, UniProt O15530); experiment: Kinome scan; conditions: 1000 nM
# T27 construct: purchased Eurofins DiscoverX Corporation
# Protocol: as §1
# PIK3C2B = target: T28, PIK3C2B (Homo sapiens, UniProt O00750); experiment: Kinome scan; conditions: 1000 nM
# T28 construct: purchased Eurofins DiscoverX Corporation
# Protocol: as §1
# PIM1 = target: T29, PIM1 (Homo sapiens, UniProt P11309); experiment: Kinome scan; conditions: 1000 nM
# T29 construct: purchased Eurofins DiscoverX Corporation
# Protocol: as §1
# PLK1 = target: T30, PLK1 (Homo sapiens, UniProt P53350); experiment: Kinome scan; conditions: 1000 nM
# T30 construct: purchased Eurofins DiscoverX Corporation
# Protocol: as §1
# PLK3 = target: T31, PLK3 (Homo sapiens, UniProt Q9H4B4); experiment: Kinome scan; conditions: 1000 nM
# T31 construct: purchased Eurofins DiscoverX Corporation
# Protocol: as §1
# PRKCE = target: T32, PRKCE (Homo sapiens, UniProt Q02156); experiment: Kinome scan; conditions: 1000 nM
# T32 construct: purchased Eurofins DiscoverX Corporation
# Protocol: as §1
# RIOK2 = target: T33, RIOK2 (Homo sapiens, UniProt Q9BVS4); experiment: Kinome scan; conditions: 1000 nM
# T33 construct: purchased Eurofins DiscoverX Corporation
# Protocol: as §1
# ROCK2 = target: T34, ROCK2 (Homo sapiens, UniProt O75116); experiment: Kinome scan; conditions: 1000 nM
# T34 construct: purchased Eurofins DiscoverX Corporation
# Protocol: as §1
# [4] = target: T35, RSK2(Kin.Dom.1-N-terminal) (Homo sapiens, UniProt P51812); experiment: Kinome scan; conditions: 1000 nM
# T35 construct: RSK2(Kin.Dom.1-N-terminal); purchased Eurofins DiscoverX Corporation
# Protocol: as §1
# TRKA (NTRK1) = target: T36, TRKA (NTRK1) (Homo sapiens, UniProt P04629); experiment: Kinome scan
# T36 construct: purchased Eurofins DiscoverX Corporation
# T36 sequence (P04629 33-796): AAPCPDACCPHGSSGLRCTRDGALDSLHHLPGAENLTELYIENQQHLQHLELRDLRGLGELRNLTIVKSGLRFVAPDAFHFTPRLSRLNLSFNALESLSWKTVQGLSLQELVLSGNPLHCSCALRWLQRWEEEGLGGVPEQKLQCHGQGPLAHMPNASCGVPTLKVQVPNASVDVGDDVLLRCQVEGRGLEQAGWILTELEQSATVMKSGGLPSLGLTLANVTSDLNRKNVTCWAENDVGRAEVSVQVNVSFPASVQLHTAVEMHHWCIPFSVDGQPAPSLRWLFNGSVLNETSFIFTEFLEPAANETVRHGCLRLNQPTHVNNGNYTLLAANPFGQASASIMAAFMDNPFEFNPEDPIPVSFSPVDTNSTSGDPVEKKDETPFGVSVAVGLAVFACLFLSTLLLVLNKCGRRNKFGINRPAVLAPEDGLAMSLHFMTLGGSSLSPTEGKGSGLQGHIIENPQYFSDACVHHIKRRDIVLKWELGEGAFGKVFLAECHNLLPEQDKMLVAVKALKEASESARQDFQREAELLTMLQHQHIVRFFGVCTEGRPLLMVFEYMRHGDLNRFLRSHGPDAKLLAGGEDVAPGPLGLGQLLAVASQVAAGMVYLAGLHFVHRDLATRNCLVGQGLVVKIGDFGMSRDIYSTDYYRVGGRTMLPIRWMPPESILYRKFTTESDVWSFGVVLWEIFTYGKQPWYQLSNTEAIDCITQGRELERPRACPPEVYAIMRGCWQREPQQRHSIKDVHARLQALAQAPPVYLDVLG
# Protocol: as §1
# ULK2 = target: T37, ULK2 (Homo sapiens, UniProt Q8IYT8); experiment: Kinome scan; conditions: 1000 nM
# T37 construct: purchased Eurofins DiscoverX Corporation
# Protocol: as §1
# VEGFR2 = target: T38, VEGFR2 (Homo sapiens, UniProt P35968); experiment: Kinome scan; conditions: 1000 nM
# T38 construct: purchased Eurofins DiscoverX Corporation
# Protocol: as §1
# p38-alpha = target: T39, p38-alpha (Homo sapiens, UniProt Q16539); experiment: Kinome scan; conditions: 1000 nM
# T39 construct: purchased Eurofins DiscoverX Corporation
# Protocol: as §1
# p38-beta = target: T40, p38-beta (Homo sapiens, UniProt Q15759); experiment: Kinome scan; conditions: 1000 nM
# T40 construct: purchased Eurofins DiscoverX Corporation
# T40 sequence (Q15759 whole entry): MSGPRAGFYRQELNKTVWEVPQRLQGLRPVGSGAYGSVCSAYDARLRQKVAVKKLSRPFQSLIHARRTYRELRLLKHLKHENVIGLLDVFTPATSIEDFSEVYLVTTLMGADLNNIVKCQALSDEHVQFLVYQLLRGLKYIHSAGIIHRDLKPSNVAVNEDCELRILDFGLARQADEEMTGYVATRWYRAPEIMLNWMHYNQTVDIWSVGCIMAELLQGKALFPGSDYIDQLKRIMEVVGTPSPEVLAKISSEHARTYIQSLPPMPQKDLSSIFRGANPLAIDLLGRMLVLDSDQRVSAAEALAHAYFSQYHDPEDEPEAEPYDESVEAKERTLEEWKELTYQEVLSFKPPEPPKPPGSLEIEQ
# Protocol: as §1
smiles,measurement,setting,value
"C#Cc1cn([C@@H]2S[C@H](CO)[C@@H](O)[C@H]2O)c2ncnc(N)c12 [Compound 1g, (2R,3R,4S,5R)-2-(4-Amino-5-ethynyl-7H-pyrrolo[2,3-d]pyrimidin-7-yl)-5-(hydroxymethyl)tetrahydrothiophene-3,4-diol]",% inhibition,Kinome scan,0.0%
same,inhibition at 1 µM,[1],18%
same,inhibition at 1 µM,[2],65%
same,inhibition at 1 µM,ACVR1B,29%
same,inhibition at 1 µM,ALK,31%
same,inhibition at 1 µM,AXL,7%
same,inhibition at 1 µM,BTK,0%
same,inhibition at 1 µM,CDK2,9%
same,inhibition at 1 µM,CDK3,18%
same,remaining binding at 1 µM,"CSNK1D; 1 μM, read-out: activity remaining, CK1δ (CSNK1D)",< 20%
same,inhibition at 1 µM,"CSNK1D; 1000 nM, CSNK1D",91.3%
same,inhibition at 1 µM,DCAMKL1,6%
same,remaining binding at 1 µM,DYRK1B; 1 μM,< 20%
same,inhibition at 1 µM,"DYRK1B; 1000 nM, DYRK1B",83%
same,inhibition at 1 µM,EGFR(L858R),0%
same,inhibition at 1 µM,ERBB2,15%
same,inhibition at 1 µM,ERK1,4%
same,inhibition at 1 µM,FGFR2,12%
same,inhibition at 1 µM,FGFR3,10%
same,inhibition at 1 µM,FLT3,27%
same,inhibition at 1 µM,GSK3B,0%
same,inhibition at 1 µM,INSR,5%
same,inhibition at 1 µM,[3],0%
same,inhibition at 1 µM,JNK1,17%
same,inhibition at 1 µM,KIT,1%
same,inhibition at 1 µM,MEK2,69%
same,inhibition at 1 µM,MKNK2,62%
same,inhibition at 1 µM,PCTK1,0%
same,inhibition at 1 µM,PDGFRB,8%
same,inhibition at 1 µM,PDPK1,11%
same,inhibition at 1 µM,PIK3C2B,1%
same,inhibition at 1 µM,PIM1,37%
same,inhibition at 1 µM,PLK1,0%
same,inhibition at 1 µM,PLK3,0%
same,inhibition at 1 µM,PRKCE,0%
same,inhibition at 1 µM,RIOK2,0%
same,inhibition at 1 µM,ROCK2,27%
same,inhibition at 1 µM,[4],55%
same,remaining binding at 1 µM,TRKA (NTRK1); 1 μM,< 20%
same,inhibition at 1 µM,"TRKA (NTRK1); 1000 nM, TRKA (NTRK1)",95.1%
same,inhibition at 1 µM,ULK2,0%
same,inhibition at 1 µM,VEGFR2,30%
same,inhibition at 1 µM,p38-alpha,11%
same,inhibition at 1 µM,p38-beta,3%
